Residues, ends and D or L forms follow the SMILES beside them.
Columns and labels:
[1] = biological target: T1, human isolated umbilical vein (BK B2R; histamine H1R) (Homo sapiens, UniProt P30411); conditions: ref Gera et al., 2011; Charest-Morin et al., 2014; cited from earlier work
T1 sequence (P30411 1-391): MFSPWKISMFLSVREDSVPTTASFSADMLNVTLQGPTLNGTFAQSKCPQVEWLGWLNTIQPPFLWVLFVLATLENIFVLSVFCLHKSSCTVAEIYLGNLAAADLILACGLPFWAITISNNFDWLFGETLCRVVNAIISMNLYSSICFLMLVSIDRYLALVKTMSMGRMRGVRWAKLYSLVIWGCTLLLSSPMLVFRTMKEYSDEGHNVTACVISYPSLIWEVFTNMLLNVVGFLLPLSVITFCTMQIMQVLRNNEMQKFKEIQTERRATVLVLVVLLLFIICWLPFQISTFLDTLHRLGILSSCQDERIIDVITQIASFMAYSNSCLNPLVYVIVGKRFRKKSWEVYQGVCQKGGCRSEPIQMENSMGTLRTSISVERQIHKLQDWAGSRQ
Text: The isolated umbilical vein has a low intrinsic sensitivity to endothelium-dependent vasodilation owing to its >20 layers of B2R-expressing smooth muscle cells ([Koumbadinga et al., 2010]; [Jean et al., 2016b]).

human BK B1 receptor = conditions: ref Charest-Morin & Marceau, 2016; cited from earlier work
Text: MRGPRX2 has been recently described as a promiscuous receptor for cationic polymers and drugs that produce direct mast cell degranulation ([McNeil et al., 2015]). […] The contractile effect of MK on the human umbilical vein and ...

[2] = biological target: T2, recombinant human myc-B2R (Homo sapiens, UniProt P30411); assay: [3H]BK binding competition, human myc-B2R; conditions: for IC50: 3 nM [3H]BK, 0 °C, intact HEK 293a cells, peptidase inhibitors (captopril, PMSF), [95% C.L.]
T2 construct: expressed in transfected cells
T2 sequence (P30411 1-391): T1 sequence (P30411 1-391)
Procedure: (§1) The construction of myc-tagged B2R expression vectors containing the human and rat receptor sequence has been recently reported, as well as the derivation of HEK 293a cell lines that stably express each one of these constructions ([Charest-Morin et al., 2015]). The HEK 293a cell line was originally obtained from Sigma-Aldrich. Affinity of N-terminally extended kinins for the B2R was evaluated using a radioligand binding competition assay performed at 0 °C in the presence of peptidase inhibitors that included captopril and PMSF ([Houle et al., 2000]).
(§2) Results are presented as means ± s.e.m.

[3] = biological target: T1, human isolated umbilical vein (BK B2R; histamine H1R); conditions: for EC50: read-out: Human umbilical vein EC50, contraction, cumulative, [95% C.L.]
Text: The institutional research ethics board (CHU de Québec) approved the anonymous use of human umbilical cord segments obtained after elective cesarean section deliveries (file number: 2012-323). Informed written consent was obtained from mothers.
Results are presented as means ± s.e.m. Radioligand binding data were fitted by nonlinear regression to a one-site competition equation using a least-square method (Prism 5.0; GraphPad Software Inc., San Diego, CA, USA) and IC50 values calculated from this procedure. The same computer program was used to draw concentration-effect curves (least square fitting of sigmoidal dose–response equation with variable slope) and to derive contractile EC50 values. Data describing baseline values of heart rate and mean arterial blood pressure and hypotensive responses to peptides in anesthetized rats were assessed by using one-way analysis of variance (ANOVA) followed by the Dunnett’s test (repeated comparison with a common control). The effects of drugs on the hypotensive responses to each dose of MK were assessed by using ANOVA followed by the Dunnett’s test.

rat mast cells = conditions: read-out: histamine release EC50; ref Devillier et al., 1985; cited from earlier work
Text: MK, encoded by two genes as five identical and cleavable amino acid sequences ([Chen et al., 2003]), is presumably a dissuasive toxin expressed in the skin of the toad Bombina maxima. Several such BK-related peptides of amphibian origin are believed to have co-evolved with the kinin receptors of the predatory species such as birds and snakes ([Xi et al., 2015]).

[4] = Plasma level after injection; parameters: species or system rat; conditions: after injection at the highest tested dose in vivo
rat recombinant myc-B2R = biological target: T3, rat recombinant myc-B2R (Rattus norvegicus, UniProt P25023); assay: [3H]BK binding competition, rat myc-B2R; conditions: 3 nM [3H]BK, 0 °C, intact HEK 293a cells, peptidase inhibitors (captopril, PMSF); [95% C.L.]
T3 construct: expressed in transfected cells
T3 sequence (P25023 1-396): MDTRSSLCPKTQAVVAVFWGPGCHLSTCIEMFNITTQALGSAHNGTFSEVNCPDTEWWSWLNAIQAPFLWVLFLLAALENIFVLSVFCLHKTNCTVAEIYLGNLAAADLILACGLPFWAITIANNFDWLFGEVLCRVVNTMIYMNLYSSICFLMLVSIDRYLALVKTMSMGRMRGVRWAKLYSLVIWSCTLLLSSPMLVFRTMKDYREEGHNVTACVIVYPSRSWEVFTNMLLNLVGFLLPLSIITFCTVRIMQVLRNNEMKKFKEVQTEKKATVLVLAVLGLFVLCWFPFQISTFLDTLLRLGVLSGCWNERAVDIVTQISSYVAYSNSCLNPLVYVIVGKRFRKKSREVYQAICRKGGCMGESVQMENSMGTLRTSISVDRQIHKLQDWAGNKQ
Procedure: as §1, §2

[5] = LC-MS of MK incubated with human umbilical vein ring; format: in vitro ADME; conditions: MK (100 fmol analysed), 37 °C, 5 or 15 min
Procedure: Synthetic MK (1 µM) was submitted to digestion in 2 ml of sterile-filtered Krebs solution in the presence of a freshly prepared ring of human umbilical vein (wet weight 25–37 mg). The tubes containing these materials were incubated at 37 °C for 5 or 15 min; the tissues were then removed and five volumes of cold ethanol (10 ml) were added to each tube. The tubes were incubated for 1 h on ice, centrifuged at 10,000 g to remove precipitated proteins and the kinin-containing supernatants were collected (procedure previously validated, [Raymond et al., 1995]). The supernatants were then completely evaporated to dryness in a Speedvac system and reconstituted in a small volume of water. Peptides were desalted on stage tip (C18), vacuum dried and then resuspended into 0.1% formic acid. One hundred fmol of each sample (starting MK quantity) was analyzed by mass spectrometry.
Mass spectrometry: peptide samples were separated by online reversed-phase (RP) nanoscale capillary liquid chromatography (nanoLC) and analyzed by electrospray mass spectrometry (ES MS/MS). The experiments were performed with a Ekspert NanoLC425 (Eksigent) coupled to a 5600+ mass spectrometer (AB Sciex, Framingham, MA, USA) equipped with a nanoelectrospray ion source. Peptide separation took place on a picofrit column (Reprosil 3u, 120A C18, 15 cm × 0.075 mm internal diameter). Peptides were eluted with a linear gradient from 5–35% solvent B (acetonitrile, 0.1% formic acid) in 35 min, at 300 nL/min. Mass spectra were acquired using a data dependent acquisition mode using Analyst software version 1.7. […] Dynamic exclusion was set for a period of 3 s and a tolerance of 100 ppm
Database searching: MGF peak list files were created using Protein Pilot version 5.0 software (Sciex) utilizing the Paragon and Progroup algorithms. MGF sample files were then analyzed using Mascot (Matrix Science, London, UK; version 2.5.1).
Mascot was set up to search the MK sequence assuming that the digestion enzyme was non-specific. Mascot was searched with a fragment ion mass tolerance of 0.100 Da and a parent ion tolerance of 0.100 Da. Deamidation of asparagine and glutamine and oxidation of methionine were specified in Mascot as variable modifications. Scaffold (version Scaffold_4.7.1; Proteome Software Inc., Portland, OR, USA) was used to validate MS/MS based peptide and protein identifications.
Data processing: Peak View 1.2.0.1 (Sciex) was used to extract the specific precursor masses and calculate the area under the curve. Extracted ion chromatoram (XIC) were generated from the TOF MS using a peak width of 0.05.

Met-Lys-BK-Ser-Ser [BK prodrug prolonged at the C-terminus]
apparent potency in presence of specific peptidase inhibitors [1]: decreased apparent potency

CC[C@H](C)[C@H](NC(=O)[C@H](CCCCN)NC(=O)[C@@H]1CCCN1C(=O)[C@H](CC(C)C)NC(=O)[C@@H](N)CC(=O)O)C(=O)N[C@@H](CC(N)=O)C(=O)N[C@@H](CCCNC(=N)N)C(=O)N[C@@H](CCCCN)C(=O)NCC(=O)N1CCC[C@H]1C(=O)N[C@@H](CCCNC(=N)N)C(=O)N1CCC[C@H]1C(=O)N1CCC[C@H]1C(=O)NCC(=O)N[C@@H](Cc1ccccc1)C(=O)N[C@@H](CO)C(=O)N1CCC[C@H]1C(=O)N[C@@H](Cc1ccccc1)C(=O)O [MK-des-Arg] (H-DLPKINRKGPRPPGFSPF-OH; N-terminus and C-terminus assumed)
B1R affinity (human BK B1 receptor): very low affinity | IC50 [2]: > 10 µM | displacement of [3H]BK binding / affinity ([2]; human myc-B2R): did not significantly displace [^3H]BK binding | contractile effect [3]: negligible effects | EC50 [3]: > 10 µM

Lys-BK
EC50 (rat mast cells): 7.7 µM

CC[C@H](C)[C@H](NC(=O)[C@H](CCCCN)NC(=O)[C@@H]1CCCN1C(=O)[C@H](CC(C)C)NC(=O)[C@@H](N)CC(=O)O)C(=O)N[C@@H](CC(N)=O)C(=O)N[C@@H](CCCNC(=N)N)C(=O)N[C@@H](CCCCN)C(=O)NCC(=O)N1CCC[C@H]1C(=O)N[C@@H](CCCNC(=N)N)C(=O)N1CCC[C@H]1C(=O)N1CCC[C@H]1C(=O)NCC(=O)N[C@@H](Cc1ccccc1)C(=O)N[C@@H](CO)C(=O)N1CCC[C@H]1C(=O)N[C@@H](Cc1ccccc1)C(=O)N[C@@H](CCCNC(=N)N)C(=O)O [MK, maximakinin] (H-DLPKINRKGPRPPGFSPFR-OH)
IC50 [2]: 7.56 µM | EC50 [3]: 0.145 µM | plasma concentration upper limit [4]: ≤ 100 nM | IC50 (rat recombinant myc-B2R): 0.12 µM | consumption of MK [5]: consumed during the reaction

NC(N)=NCCC[C@H](NC(=O)[C@H](Cc1ccccc1)NC(=O)[C@@H]1CCCN1C(=O)[C@H](CO)NC(=O)[C@H](Cc1ccccc1)NC(=O)CNC(=O)[C@@H]1CCCN1C(=O)[C@@H]1CCCN1C(=O)[C@@H](N)CCCN=C(N)N)C(=O)O [BK, bradykinin] (H-RPPGFSPFR-OH)
IC50 (rat recombinant myc-B2R): 0.0192 µM

Source: publication PMC5248581 (PeerJ, 2017)
